From ChEMBL document CHEMBL1139889, “Identification and characterization of a library of microheterogeneous cyclohexadepsipeptides from the fungus Isaria” (J Nat Prod, 2007) come the findings set out here.

Structures are written as SMILES. pIC50: −log10 of the molar value. Peptide text beside a SMILES is read from it.

By pIC50 is commonly meant −log10 of the IC50, conventionally taken in molar units. Lower therefore signals a high IC50.

For one data set, the system named is Plasmodium falciparum. The experiment in a line: Growth inhibition of Plasmodium falciparum 3D7 in erythrocytes by [3H]hypoxanthine uptake. The format is functional, organism-based.
Data set [1] in a line: Toxicity against human erythrocytes assessed as lysis at 300 uM. The class given is cell-based. The note with it: erythrocyte.
Data set [2] can be described thus: Toxicity against human erythrocytes assessed as lysis at 600 uM. The format is cell-based. The note with it: erythrocyte.

`CC(C)CC1OC(=O)CCNC(=O)[C@H](Cc2ccccc2)N(C)C(=O)[C@H](C(C)C)N(C)C(=O)[C@H](Cc2ccccc2)NC(=O)[C@@H]2CCCN2C1=O` (stereo partly specified) [ISARIDINE A] (HELM PEPTIDE1{F.[meV].[meF].[bAla].[CC(C)CC(O[*:1])C(=O)[*:2]].P}$PEPTIDE1,PEPTIDE1,1:R1-6:R2$$$V2.0) had a negative-log IC50 (pIC50) in the data set with Plasmodium falciparum of 3.64. Also, the Activity result in data set [1] and in data set [2] was “Non-toxic” in each case.
`CCCCCCC1CC(=O)NCC(=O)N[C@@H](C(C)C)C(=O)N[C@H](CC(C)C)C(=O)N[C@@H](C)C(=O)N[C@@H](C(C)C)C(=O)O1` (stereo partly specified) [ISARIIN B] had a pIC50 in the data set with Plasmodium falciparum of 3.93. Besides, the Activity entry in data set [1] and in data set [2] was “Non-toxic” each time.
